Data taken from ChEMBL document CHEMBL3797178, “Synthesis, antimycobacterial and antibacterial activity of 1-(6-amino-3,5-difluoropyridin-2-yl)fluoroquinolone derivatives containing an oxime functional moiety” (2016).
In brackets after ≈: the same amount, converted by molar mass.

Key:
Format in all cases: functional
[1] = tested on: Pseudomonas aeruginosa; test: Antibacterial activity against Pseudomonas aeruginosa ATCC 27853 after 18 to 24 hrs by CLSI M100-S11 method
[2] = tested on: Staphylococcus epidermidis; test: Antibacterial activity against methicillin-resistant Staphylococcus epidermidis 14-22 after 18 to 24 hrs by CLSI M100-S11 method
[3] = tested on: Enterococcus faecalis; test: Antibacterial activity against Enterococcus faecalis 14-2 after 18 to 24 hrs by CLSI M100-S11 method
[4] = tested on: Escherichia coli; test: Antibacterial activity against Escherichia coli 14-1 after 18 to 24 hrs by CLSI M100-S11 method
[5] = tested on: Staphylococcus epidermidis; test: Antibacterial activity against methicillin-resistant Staphylococcus epidermidis 14-39 after 18 to 24 hrs by CLSI M100-S11 method
[6] = tested on: Pseudomonas aeruginosa; test: Antibacterial activity against Pseudomonas aeruginosa 14-14 after 18 to 24 hrs by CLSI M100-S11 method
[7] = tested on: Klebsiella pneumoniae; test: Antibacterial activity against extended-spectrum beta-lactamase-producing Klebsiella pneumoniae 14-18 after 18 to 24 hrs by CLSI M100-S11 method
[8] = tested on: Pseudomonas aeruginosa; test: Antibacterial activity against Pseudomonas aeruginosa 14-19 after 18 to 24 hrs by CLSI M100-S11 method
[9] = tested on: Escherichia coli; test: Antibacterial activity against Escherichia coli 14-2 after 18 to 24 hrs by CLSI M100-S11 method
[10] = tested on: Klebsiella pneumoniae; test: Antibacterial activity against Klebsiella pneumoniae 14-4 after 18 to 24 hrs by CLSI M100-S11 method
[11] = tested on: Staphylococcus epidermidis; test: Antibacterial activity against methicillin-resistant Staphylococcus epidermidis 14-37 after 18 to 24 hrs by CLSI M100-S11 method
[12] = tested on: Klebsiella pneumoniae; test: Antibacterial activity against extended-spectrum beta-lactamase-producing Klebsiella pneumoniae 14-19 after 18 to 24 hrs by CLSI M100-S11 method
[13] = tested on: Pseudomonas aeruginosa; test: Antibacterial activity against Pseudomonas aeruginosa 14-9 after 18 to 24 hrs by CLSI M100-S11 method
[14] = tested on: Staphylococcus aureus; test: Antibacterial activity against methicillin-sensitive Staphylococcus aureus 14-3 after 18 to 24 hrs by CLSI M100-S11 method
[15] = tested on: Staphylococcus aureus; test: Antibacterial activity against Staphylococcus aureus CMCC 26003 after 18 to 24 hrs by CLSI M100-S11 method
[16] = tested on: Mycobacterium tuberculosis; test: Antimycobacterial activity against Mycobacterium tuberculosis H37Rv ATCC 27294 after 3 days by microplate Alamar Blue assay; details: H37Rv ATCC 27294, 72 h
[17] = tested on: Staphylococcus aureus; test: Antibacterial activity against methicillin-sensitive Staphylococcus aureus 14-4 after 18 to 24 hrs by CLSI M100-S11 method
[18] = tested on: Klebsiella pneumoniae; test: Antibacterial activity against Klebsiella pneumoniae 14-2 after 18 to 24 hrs by CLSI M100-S11 method
[19] = tested on: Enterococcus faecium; test: Antibacterial activity against Enterococcus faecium 14-1 after 18 to 24 hrs by CLSI M100-S11 method
[20] = tested on: Pseudomonas aeruginosa; test: Antibacterial activity against Pseudomonas aeruginosa 14-15 after 18 to 24 hrs by CLSI M100-S11 method
[21] = tested on: Enterococcus faecium; test: Antibacterial activity against Enterococcus faecium 14-2 after 18 to 24 hrs by CLSI M100-S11 method
[22] = tested on: Escherichia coli; test: Antibacterial activity against extended-spectrum beta-lactamase-producing Escherichia coli 14-1 after 18 to 24 hrs by CLSI M100-S11 method
[23] = tested on: Staphylococcus aureus; test: Antibacterial activity against methicillin-resistant Staphylococcus aureus 14-5 after 18 to 24 hrs by CLSI M100-S11 method
[24] = tested on: Escherichia coli; test: Antibacterial activity against Escherichia coli ATCC 25922 after 18 to 24 hrs by CLSI M100-S11 method
[25] = tested on: Enterococcus faecalis; test: Antibacterial activity against Enterococcus faecalis 14-1 after 18 to 24 hrs by CLSI M100-S11 method
[26] = tested on: Klebsiella pneumoniae; test: Antibacterial activity against Klebsiella pneumoniae 14-3 after 18 to 24 hrs by CLSI M100-S11 method
[27] = tested on: Streptococcus pneumoniae; test: Antibacterial activity against Streptococcus pneumoniae ATCC 19615 after 18 to 24 hrs by CLSI M100-S11 method
[28] = tested on: Klebsiella pneumoniae; test: Antibacterial activity against extended-spectrum beta-lactamase-producing Klebsiella pneumoniae 14-17 after 18 to 24 hrs by CLSI M100-S11 method
[29] = tested on: Staphylococcus aureus; test: Antibacterial activity against methicillin-resistant Staphylococcus aureus 14-4 after 18 to 24 hrs by CLSI M100-S11 method
[30] = tested on: Klebsiella pneumoniae; test: Antibacterial activity against Klebsiella pneumoniae 14-1 after 18 to 24 hrs by CLSI M100-S11 method
[31] = tested on: Enterococcus faecalis; test: Antibacterial activity against Enterococcus faecalis 14-3 after 18 to 24 hrs by CLSI M100-S11 method
[32] = tested on: Staphylococcus epidermidis; test: Antibacterial activity against methicillin-sensitive Staphylococcus epidermidis 14-6 after 18 to 24 hrs by CLSI M100-S11 method
[33] = tested on: Staphylococcus epidermidis; test: Antibacterial activity against methicillin-sensitive Staphylococcus epidermidis 14-4 after 18 to 24 hrs by CLSI M100-S11 method
[34] = tested on: Escherichia coli; test: Antibacterial activity against extended-spectrum beta-lactamase-producing Escherichia coli 14-2 after 18 to 24 hrs by CLSI M100-S11 method
[35] = tested on: Staphylococcus epidermidis; test: Antibacterial activity against methicillin-sensitive Staphylococcus epidermidis 14-2 after 18 to 24 hrs by CLSI M100-S11 method
[36] = tested on: Staphylococcus aureus; test: Antibacterial activity against methicillin-sensitive Staphylococcus aureus 14-2 after 18 to 24 hrs by CLSI M100-S11 method
[37] = tested on: Pseudomonas aeruginosa; test: Antibacterial activity against Pseudomonas aeruginosa 14-16 after 18 to 24 hrs by CLSI M100-S11 method

Compound: CO/N=C1\CN(c2nc3c(cc2F)c(=O)c(C(=O)O)cn3-c2nc(N)c(F)cc2F)[C@H]1CN
- MIC [1]: 16 µg/mL (≈ 34.5 µM)
- MIC [2]: > 128 µg/mL
- MIC [3]: > 128 µg/mL
- MIC [4]: > 128 µg/mL
- MIC [5]: > 128 µg/mL
- MIC [6]: 64 µg/mL (≈ 138 µM)
- MIC [7]: 64 µg/mL (≈ 138 µM)
- MIC [8]: 32 µg/mL (≈ 69.1 µM)
- MIC [9]: > 128 µg/mL
- MIC [10]: > 128 µg/mL
- MIC [11]: > 128 µg/mL
- MIC [12]: > 128 µg/mL
- MIC [13]: 32 µg/mL (≈ 69.1 µM)
- MIC [14]: 8 µg/mL (≈ 17.3 µM)
- MIC [15]: 4 µg/mL (≈ 8.63 µM)
- MIC [16]: > 32 µg/mL
- MIC [17]: 4 µg/mL (≈ 8.63 µM)
- MIC [18]: > 128 µg/mL
- MIC [19]: > 128 µg/mL
- MIC [20]: 64 µg/mL (≈ 138 µM)
- MIC [21]: 128 µg/mL (≈ 276 µM)
- MIC [22]: 64 µg/mL (≈ 138 µM)
- MIC [23]: > 128 µg/mL
- MIC [24]: 2 µg/mL (≈ 4.32 µM)
- MIC [25]: > 128 µg/mL
- MIC [26]: > 128 µg/mL
- MIC [27]: 64 µg/mL (≈ 138 µM)
- MIC [28]: > 128 µg/mL
- MIC [29]: > 128 µg/mL
- MIC [30]: > 128 µg/mL
- MIC [31]: > 128 µg/mL
- MIC [32]: 64 µg/mL (≈ 138 µM)
- MIC [33]: 64 µg/mL (≈ 138 µM)
- MIC [34]: > 128 µg/mL
- MIC [35]: > 128 µg/mL
- MIC [36]: 8 µg/mL (≈ 17.3 µM)
- MIC [37]: 32 µg/mL (≈ 69.1 µM)

Compound: CCO/N=C1\CN(c2nc3c(cc2F)c(=O)c(C(=O)O)cn3-c2nc(N)c(F)cc2F)[C@H]1CN
- MIC [1]: 16 µg/mL (≈ 33.5 µM)
- MIC [2]: > 128 µg/mL
- MIC [3]: > 128 µg/mL
- MIC [4]: > 128 µg/mL
- MIC [5]: > 129 µg/mL
- MIC [6]: 64 µg/mL (≈ 134 µM)
- MIC [7]: 64 µg/mL (≈ 134 µM)
- MIC [8]: 64 µg/mL (≈ 134 µM)
- MIC [9]: > 128 µg/mL
- MIC [10]: 128 µg/mL (≈ 268 µM)
- MIC [11]: > 128 µg/mL
- MIC [12]: > 128 µg/mL
- MIC [13]: 32 µg/mL (≈ 67 µM)
- MIC [14]: 8 µg/mL (≈ 16.8 µM)
- MIC [15]: 2 µg/mL (≈ 4.19 µM)
- MIC [16]: > 32 µg/mL
- MIC [17]: 4 µg/mL (≈ 8.38 µM)
- MIC [18]: > 128 µg/mL
- MIC [19]: > 128 µg/mL
- MIC [20]: 64 µg/mL (≈ 134 µM)
- MIC [21]: 32 µg/mL (≈ 67 µM)
- MIC [22]: 64 µg/mL (≈ 134 µM)
- MIC [23]: > 128 µg/mL
- MIC [24]: 2 µg/mL (≈ 4.19 µM)
- MIC [25]: > 128 µg/mL
- MIC [26]: > 128 µg/mL
- MIC [27]: 32 µg/mL (≈ 67 µM)
- MIC [28]: > 128 µg/mL
- MIC [29]: > 128 µg/mL
- MIC [30]: > 128 µg/mL
- MIC [31]: > 128 µg/mL
- MIC [32]: 128 µg/mL (≈ 268 µM)
- MIC [33]: 64 µg/mL (≈ 134 µM)
- MIC [34]: > 128 µg/mL
- MIC [35]: > 128 µg/mL
- MIC [36]: 4 µg/mL (≈ 8.38 µM)
- MIC [37]: 64 µg/mL (≈ 134 µM)
